Counter-ions that a name gives are not always drawn.
Tests used:
[1] = system: E. coli ATCCBAA-2452 NDM-1; experiment: Imipenem combination MIC, broth microdilution; assay type: cell-based; details: imipenem only (baseline)
Method: (§1) MICs were determined by exposing bacteria to serial dilutions of antibacterial agents in MHB-II (cation-adjusted Mueller-Hinton Broth pH 7.4) according to Clinical and Laboratory Standards Institute (CLSI) broth microdilution guidelines (Cockerill et al., 2012).
(§2) Combination MIC were performed as described for MIC determinations with the addition of 4 mg/L test article to MHB-II.
(§3) Compounds of the invention were also tested in combination with imipenem.

A. baumannii SG698 NDM-1 [2] = experiment: Imipenem combination MIC, broth microdilution; assay type: cell-based; details: imipenem only (baseline)
Method: as §1, §2, §3

[3] = system: K. pneumoniae ATCC BAA2146 NDM-1; experiment: Imipenem combination MIC, broth microdilution; assay type: cell-based; details: imipenem only (baseline)
Method: as §1, §2, §3

E. coli NCTC13476 IMP [4] = experiment: Imipenem combination MIC, broth microdilution; assay type: cell-based; details: imipenem only (baseline)
Method: as §1, §2, §3

[5] = system: K. pneumoniae NCTC13440 VIM-1; experiment: Imipenem combination MIC, broth microdilution; assay type: cell-based; details: imipenem only (baseline)
Method: as §1, §2, §3

[6] = Cytotoxicity Assay (CellTiter-Glo); assay type: cell-based; details: human, Hep G2 cells (ATCC HB-8065); 24 h exposure, cell viability; read-out: HepG2 CC50
Method: Cytotoxicity was evaluated in human Hep G2 cells (ATCC HB-8065) seeded at a density of 2×10^5 cells per well and incubated for 24 h at 37° C., 5% CO2. Cells were exposed to a doubling dilution series of test article. After 24 h exposure, the viability of the cells was determined using CellTiter-Glo® (Promega, Wis., USA) according to the manufacturer's instructions. Results are reported as the concentration of test article required to reduce cell viability by 50% (CC50).

NDM-1 = NDM-1 (Klebsiella pneumoniae, UniProt C7C422); experiment: metallo-β-lactamase inhibition assay (nitrocefin); assay type: biochemical; details: 1.5 nM NDM-1, 100 μM nitrocefin, 37° C., pH 7.5
Method: Compounds of the invention were tested in a metallo-β-lactamase inhibition assay to investigate mechanism of action of the compounds. Results are reported as the concentration of test article required to inhibit enzyme activity by 50% (IC50).
Inhibition of metallo-β-lactamase enzyme function was performed at 37° C. in buffer at pH 7.5 (50 mM HEPES, 150 mM NaCl, 0.1 mM ZnSO4, 20 μg/mL PEG4000), containing 1.5 nM NDM-1, 100 μM nitrocefin, and a range of concentrations of compound. Absorbance at 490 nm was measured using a BMG LABTECH FLUOstar Omega microplate reader every minute for 30 minutes. IC50S were determined from the average increase in OD per minute versus the Log 10 concentration of compound using GraphPad Prism.

[7] = system: K. pneumoniae NCTC13439 VIM-1; experiment: Meropenem combination MIC, broth microdilution; assay type: cell-based; details: meropenem only (baseline)
Method: as §1, §2

[8] = system: E. coli ATCCBAA-2452 NDM-1; experiment: Meropenem combination MIC, broth microdilution; assay type: cell-based; details: meropenem only (baseline)
Method: as §1, §2

A. baumannii SG698 NDM-1 [9] = experiment: Meropenem combination MIC, broth microdilution; assay type: cell-based; details: meropenem only (baseline)
Method: as §1, §2

[10] = system: K. pneumoniae ATCC BAA2146 NDM-1; experiment: Meropenem combination MIC, broth microdilution; assay type: cell-based; details: meropenem only (baseline)
Method: as §1, §2

E. coli NCTC13476 IMP [11] = experiment: Meropenem combination MIC, broth microdilution; assay type: cell-based; details: meropenem only (baseline)
Method: as §1, §2

[12] = system: K. pneumoniae NCTC13440 VIM-1; experiment: Meropenem combination MIC, broth microdilution; assay type: cell-based; details: meropenem only (baseline)
Method: as §1, §2

NDM-1, sequence (C7C422 whole entry, looked up, species assumed): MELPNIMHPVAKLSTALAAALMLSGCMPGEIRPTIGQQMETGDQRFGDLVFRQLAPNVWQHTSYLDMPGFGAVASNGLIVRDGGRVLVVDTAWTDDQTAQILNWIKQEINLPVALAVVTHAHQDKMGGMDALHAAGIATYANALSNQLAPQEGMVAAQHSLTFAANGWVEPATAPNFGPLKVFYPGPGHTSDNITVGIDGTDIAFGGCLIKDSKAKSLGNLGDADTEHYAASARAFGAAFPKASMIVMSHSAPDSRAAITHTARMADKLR

SMILES | IC50 (NDM-1) [nM] | CC50 at 24 h [6] [µg/mL] | also measured
C[C@@H](O)[C@H]1C(=O)N2C(C(=O)O)=C(SCCN=CN)C[C@H]12 [Imipenem, imipenem] |  |  | Imipenem MIC I E. coli ATCCBAA-2452 NDM-1 [1]: D (D≤10); Imipenem MIC IV A. baumannii SG698 NDM-1 (A. baumannii SG698 NDM-1 [2]): F (F≤80); Imipenem MIC III K. pneumoniae ATCC BAA2146 NDM-1 [3]: E (E≤40); Imipenem MIC II E. coli NCTC13476 IMP (E. coli NCTC13476 IMP [4]): C (C≤5); Imipenem MIC V K. pneumoniae NCTC13440 VIM-1 [5]: D (D≤10)
Nc1ccc(-c2ccn(S(N)(=O)=O)c2C(=O)O)cn1 [Example 1, 3-(6-Aminopyridin-3-yl)-1-sulfamoyl-1H-pyrrole-2-carboxylic acid] | 826 | > 256 | 
Nc1ccc(-c2ccn(S(N)(=O)=O)c2-c2nnn[nH]2)cn1 [Example 77, 3-(6-Aminopyridin-3-yl)-2-(1H-tetrazol-5-yl)-1H-pyrrole-1-sulfonamide] | 506 | > 256 | 
NCCNS(=O)(=O)c1ccc(-c2ccn(S(N)(=O)=O)c2C(=O)O)cc1 [Example 36, 3-{4-[(2-Aminoethyl)sulfamoyl]phenyl}-1-sulfamoyl-1H-pyrrole-2-carboxylic acid] | 1010 | > 256 | 
C[C@@H](O)[C@H]1C(=O)N2C(C(=O)O)=C(S[C@@H]3CN[C@H](C(=O)N(C)C)C3)[C@H](C)[C@H]12 [Meropenem, meropenem] |  |  | Meropenem MIC (μg/mL) VII K. pneumoniae NCTC13439 VIM-1 [7]: 0.5 µg/mL; Meropenem MIC (μg/mL) I E. coli ATCCBAA-2452 NDM-1 [8]: 1 µg/mL; Meropenem MIC (μg/mL) IV A. baumannii SG698 NDM-1 (A. baumannii SG698 NDM-1 [9]): 8 µg/mL; Meropenem MIC (μg/mL) III K. pneumoniae ATCC BAA2146 NDM-1 [10]: 16 µg/mL; Meropenem MIC (μg/mL) II E. coli NCTC13476 IMP (E. coli NCTC13476 IMP [11]): 4 µg/mL; Meropenem MIC (μg/mL) V K. pneumoniae NCTC13440 VIM-1 [12]: 1 µg/mL
Nc1cncc(-c2ccn(S(N)(=O)=O)c2C(=O)O)c1 [Example 22, 3-(5-Amino-3-pyridyl)-1-sulfamoyl-pyrrole-2-carboxylic acid] | 2090 | > 256 | 
CC(=O)N1CCC(c2ccn(S(N)(=O)=O)c2C(=O)O)CC1 [Example 58, 3-(1-Acetylpiperidin-4-yl)-1-sulfamoyl-1H-pyrrole-2-carboxylic acid] | 1310 | > 256 | 
Cc1ccc(-c2ccn(S(N)(=O)=O)c2C(=O)O)cc1 [Example 2, 3-(p-tolyl)-1-sulfamoyl-1H-pyrrole-2-carboxylic acid, sodium salt] | 479 | > 128 | 
NS(=O)(=O)n1ccc(-c2cccc(F)c2)c1C(=O)O [Example 19, 3-(3-Fluorophenyl)-1-sulfamoyl-pyrrole-2-carboxylic acid] | 1530 | > 256 | 

Further lines, with some results ahead:

IC50 (NDM-1) [nM] | SMILES | CC50 at 24 h [6] [µg/mL] | also measured
2860 | Cn1cc(-c2ccn(S(N)(=O)=O)c2C(=O)O)cn1 [Example 6, 3-(1-Methyl-1H-pyrazol-4-yl)-1-sulfamoyl-1H-pyrrole-2-carboxylic acid, sodium salt] | > 256 | 
3360 | Nc1ncc(-c2ccn(S(N)(=O)=O)c2C(=O)O)cc1F [Example 21, 3-(6-Amino-5-fluoro-3-pyridyl)-1-sulfamoyl-pyrrole-2-carboxylic acid] | > 256 | 
3890 | NS(=O)(=O)n1ccc(OCC2CC2)c1C(=O)O [Example 72, 3-(Cyclopropylmethoxy)-1-sulfamoyl-pyrrole-2-carboxylic acid, Sodium Salt] | > 256 | 
1300 | NCC(=O)N1CCC(c2ccn(S(N)(=O)=O)c2C(=O)O)CC1 [Example 62, 3-[1-(2-Aminoacetyl)-4-piperidyl]-1-sulfamoyl-pyrrole-2-carboxylic acid] | > 256 | 
444 | CS(=O)(=O)c1ccc(-c2ccn(S(N)(=O)=O)c2C(=O)O)cc1 [Example 5, 3-(4-Methanesulfonylphenyl)-1-sulfamoyl-1H-pyrrole-2-carboxylic acid, sodium salt] | > 256 | 
2690 | NS(=O)(=O)n1ccc(-c2ccc(=O)[nH]c2)c1C(=O)O [Example 52, 3-(6-Oxo-1,6-dihydropyridin-3-yl)-1-sulfamoyl-1H-pyrrole-2-carboxylic acid, Sodium Salt] | > 256 | 
1350 | NS(=O)(=O)n1ccc(-c2ccncc2)c1C(=O)O [Example 9, 3-(Pyridin-4-yl)-1-sulfamoyl-1H-pyrrole-2-carboxylic acid, sodium salt] | > 256 | 
1180 | Cn1cc(-c2ccn(S(N)(=O)=O)c2-c2nnn[nH]2)cn1 [Example 76, 3-(1-Methyl-1H-pyrazol-4-yl)-2-(1H-tetrazol-5-yl)-1H-pyrrole-1-sulfonamide] | > 256 | 
